Measured values taken from ChEMBL document CHEMBL1806427, “Pyridine-derived γ-secretase modulators” (Bioorg Med Chem Lett, 2011).
Activity calls are given as the source filed them. The calls are words filed in the database; no cut-off is given here.

Key:
Gamma-secretase [1] = test: Inhibition of gamma-secretase in human SHSY5Y cells expressing human recombinant Swedish variant of APP K595N/M596L assessed as reduction of amyloid beta42 level after 48 hrs by AlphaLISA assay; type: cell-based; conditions: sh-sy5y
Gamma-secretase [2] = test: Inhibition of gamma-secretase in human SHSY5Y cells expressing human recombinant Swedish variant of APP K595N/M596L assessed as reduction of amyloid beta40 level after 48 hrs by AlphaLISA assay; type: cell-based; conditions: sh-sy5y
[3] = Inhibition of gamma-secretase expressed in african green monkey CV1 cells co-expressing Gal4 DNA-binding/transactivation domain assessed as inhibition of notch processing after 22 hrs by luciferase reporter assay; type: cell-based; conditions: CV-1, 22 h
SH-SY5Y = test: Toxicity in human SH-SY5Y cells assessed as cell viability up to 3 uM by WST-1 assay; type: cell-based
Blood = test: Drug level in Sprague-Dawley rat blood at 30 mg/kg, po; type: ADME, organism-based; parameters: dose 30 mg/kg, route oral; conditions: in vivo, read-out: Drug uptake
Brain = test: Drug level in Sprague-Dawley rat brain at 30 mg/kg, po; type: ADME, organism-based; parameters: dose 30 mg/kg, route oral; conditions: in vivo, read-out: Drug uptake
[4] = Ratio of drug level in brain to blood in Sprague-Dawley rat at 30 mg/kg, po; type: ADME, organism-based; parameters: dose 30 mg/kg, route oral; conditions: brain/whole blood, read-out: BBR
Rattus norvegicus [5] = test: Antialzheimer activity in Sprague-Dawley rat assessed as reduction of amyloid beta42 level in brain at 30 mg/kg/day, po for 5 days measured 6 hrs after last dose; type: functional; parameters: scale not given: the % may be the effect or the level left
[6] = Drug level in Sprague-Dawley rat brain at 30 mg/kg/day, po for 5 days measured 6 hrs after last dose; type: ADME, organism-based; parameters: route oral; conditions: read-out: Drug uptake
Rattus norvegicus [7] = test: Toxicity in Sprague-Dawley rat assessed as effect on Notch-mediated Hes-1 mRNA level in ileum at 30 mg/kg/day, po for 5 days measured 6 hrs after last dose; type: organism-based; parameters: route oral; conditions: in vivo
Rattus norvegicus [8] = test: Toxicity in Sprague-Dawley rat assessed as effect on Notch-mediated CD4 level in thymocytes at 30 mg/kg/day, po for 5 days measured 6 hrs after last dose; type: organism-based; parameters: route oral; conditions: in vivo
Rattus norvegicus [9] = test: Toxicity in Sprague-Dawley rat assessed as effect on Notch-mediated CD8 level in thymocytes at 30 mg/kg/day, po for 5 days measured 6 hrs after last dose; type: organism-based; parameters: route oral; conditions: in vivo
[10] = Blood clearance in Sprague-Dawley rat at 1 mg/kg, iv and 2 mg/kg, po; type: ADME, organism-based; conditions: whole blood
[11] = Volume of distribution at steady state in Sprague-Dawley rat at 1 mg/kg, iv and 2 mg/kg, po; type: ADME, organism-based; conditions: in vivo, read-out: Vdss
[12] = Half life in Sprague-Dawley rat at 1 mg/kg, iv and 2 mg/kg, po; type: ADME, organism-based; conditions: in vivo
[13] = Oral bioavailability in Sprague-Dawley rat at 2 mg/kg; type: ADME, organism-based; conditions: in vivo
[14] = biological target: T1, Gamma-secretase (Homo sapiens) (UniProt Q96BI3+Q9NZ42+Q8WW43+P49768+Q92542+P49810); test: Inhibition of gamma-secretase in human SHSY5Y cells expressing human recombinant Swedish variant of APP K595N/M596L assessed as reduction of amyloid beta42 level after 24 hrs by DELFIA assay; type: cell-based; conditions: SH-SY5Y
[15] = biological target: T1, Gamma-secretase (Homo sapiens); test: Inhibition of gamma-secretase in human SHSY5Y cells expressing human recombinant Swedish variant of APP K595N/M596L assessed as reduction of amyloid beta40 level after 24 hrs by DELFIA assay; type: cell-based; conditions: SH-SY5Y
[16] = biological target: T1, Gamma-secretase (Homo sapiens); test: Inhibition of gamma-secretase in human SHSY5Y cells expressing human recombinant Swedish variant of APP K595N/M596L assessed as increase of total amyloid beta level after 24 hrs by DELFIA assay; type: cell-based; conditions: SH-SY5Y

Row | Compound | pIC50 (Gamma-secretase [1]) | pIC50 (Gamma-secretase [2]) | IC50 [3] [µM] | other results
1 | COc1cc(-c2cnc(N[C@@H](C)c3ccc(F)cc3)s2)ccc1-n1cnc(C)c1 | 6.1 | 4.3 |  | 
2 | COc1cc(-c2cnc(N[C@@H](C)c3ccc(F)cc3)nc2)ccc1-n1cnc(C)c1 | 6.7 | 6 | 10 | 
3 | Cc1cn(-c2ccc(-c3ccc(N[C@@H](C)c4ccc(F)cc4)nc3)cc2Cl)cn1 | 6.4 | 5.7 |  | 
4 | Cc1cn(-c2ccc(-c3ccc(N[C@@H](C)c4ccc(F)cc4)nc3)cc2OC(C)C)cn1 | 5.5 | 5.1 |  | 
5 | COc1cc(-c2ccc(N[C@@H](C)c3ccc(F)cc3)nc2)ccc1-c1ccnnc1 | 6.4 | 5.7 | 12.6 | 
6 | COc1cc(-c2ccc(N[C@@H](C)c3ccc(F)cc3)nc2)ccc1-n1cnc(C)c1 [listing 1 of 2 here] | 6.9 | 6.1 | 10 | Activity (SH-SY5Y): Non-toxic; concentration (Blood): 4.98 µM; concentration (Brain): 8.75 µM; Kp [4]: 1.74; Activity (Rattus norvegicus [5]): 27.6%; concentration at 6 h [6]: 8.86 µM; Activity (Rattus norvegicus [7]): Non-toxic; Activity (Rattus norvegicus [8]): Non-toxic; Activity (Rattus norvegicus [9]): Non-toxic
7 | Cc1cn(-c2ccc(-c3ccc(N[C@@H](C)c4ccc(F)cc4)nc3)cc2N(C)C)cn1 | 4.3 | 4.4 |  | 
8 | CNC(=O)c1cc(-c2ccc(N[C@@H](C)c3ccc(F)cc3)nc2)ccc1-n1cnc(C)c1 | < 4 | < 4 |  | 
9 | COc1cc(-c2ccc(N[C@@H](C)c3ccc(F)cc3)cn2)ccc1-n1cnc(C)c1 | 6.2 | 5 | 6.31 | 
10 | Cc1cn(-c2ccc(-c3ccc(N[C@@H](C)c4ccc(F)cc4)nc3)cc2-c2ccccc2)cn1 | 4.8 | 5 |  | 
11 | COc1cc(-c2ccc(N[C@@H](C)c3ccc(F)cc3)nc2)ccc1-c1sc(C)nc1C | 6.4 | 5.3 | 10 | 
12 | COc1cc(-c2ccc(N[C@@H](C)c3ccc(F)cc3)nc2)ccc1-c1ccnc(C)c1 | 6.3 | 5.2 | 6.31 | 
13 | COc1cc(-c2noc(N[C@@H](C)c3ccc(F)cc3)n2)ccc1-n1cnc(C)c1 | 6.5 | 4.5 |  | 
14 | COc1cc(-c2nnc(N[C@@H](C)c3ccc(F)cc3)s2)ccc1-n1cnc(C)c1 | 7.1 | 6.2 |  | 
15 | COc1cc(-c2ccc(N[C@@H](C)c3ccc(F)cc3)nc2)ccc1-c1cc(C)ns1 | 6.6 | 5.7 | 15.8 | 
16 | COc1cc(-c2cc(C)c(N[C@@H](C)c3ccc(F)cc3)nn2)ccc1-n1cnc(C)c1 |  |  |  | Activity (Rattus norvegicus [5]): 45.7%; concentration at 6 h [6]: 10.4 µM; Activity (Rattus norvegicus [7]): Non-toxic; Activity (Rattus norvegicus [8]): Non-toxic; Activity (Rattus norvegicus [9]): Non-toxic
17 | COc1cc(-c2ncc(N[C@@H](C)c3ccc(F)cc3)cn2)ccc1-n1cnc(C)c1 | 6.6 | 5.9 | 10 | 
18 | COc1cc(-c2ccc(N[C@@H](C)c3ccc(F)cc3)nc2)ccc1-n1cnc(C)c1.Cl |  |  |  | clearance [10]: 12.2 mL/min/kg; Vd [11]: 3.7 L/kg; half-life [12]: 3.3 h; bioavailability [13]: 100%
19 | Cc1cn(-c2ccc(-c3ccc(N[C@@H](C)c4ccc(F)cc4)nc3)cc2C)cn1 | 5.2 | 4.8 |  | 
20 | COc1cc(-c2ccc(N[C@@H](C)c3ccc(F)cc3)nc2)ccc1-n1cnc(C)c1 [listing 2 of 2 here] |  |  |  | inhibition [14]: Dose-dependent effect; inhibition [15]: Dose-dependent effect; inhibition [16]: Active
21 | CCOc1cc(-c2ccc(N[C@@H](C)c3ccc(F)cc3)nc2)ccc1-n1cnc(C)c1 | 6.3 | 5.3 |  | 
